Test results from the NIST ThermoML archive (doi:10.1016/j.jct.2015.08.021).

What was measured:
[1] = refractive index (Na D-line) (dimensionless); xn = mol fraction of the nth substance listed; conditions: 101.3 kPa, Liquid, Standard Abbe refractometry
[2] = relative permittivity at various frequencies (dimensionless); xn = mol fraction of the nth substance listed; conditions: 101.3 kPa, Liquid, Frequency=0.1 MHz, Coaxial cylinder capacitor
[3] = refractive index (Na D-line) (dimensionless); conditions: 101.3 kPa, Liquid, Standard Abbe refractometry
[4] = 298.15 K; 101.33 kPa; Liquid; Vibrating tube method
[5] = relative permittivity at various frequencies (dimensionless); conditions: 101.3 kPa, Liquid, Frequency=0.1 MHz, Coaxial cylinder capacitor

OCCCCO [1,4-butanediol] + CC(C)CCO
Conditions | refractive index, 298.15 K | refractive index, 308.15 K | refractive index, 318.15 K | relative permittivity, 298.15 K | relative permittivity, 308.15 K | relative permittivity, 318.15 K
[1], x1 = 0.101 | 1.4088 | 1.4052 | 1.4014 | – | – | –
[1], x1 = 0.2 | 1.4123 | 1.4087 | 1.4055 | – | – | –
[1], x1 = 0.299 | 1.4165 | 1.4122 | 1.4093 | – | – | –
[1], x1 = 0.4 | 1.4203 | 1.4166 | 1.4137 | – | – | –
[1], x1 = 0.5 | 1.4244 | 1.4207 | 1.4175 | – | – | –
[1], x1 = 0.6 | 1.4291 | 1.4252 | 1.4222 | – | – | –
[1], x1 = 0.699 | 1.4325 | 1.4295 | 1.426 | – | – | –
[1], x1 = 0.801 | 1.4372 | 1.4336 | 1.4309 | – | – | –
[1], x1 = 0.9 | 1.4409 | 1.4376 | 1.4353 | – | – | –
[1], x1 = 1 | 1.4445 | 1.4417 | 1.4393 | – | – | –
[2], x1 = 0.101 | – | – | – | 15.856 | 14.411 | 13.099
[2], x1 = 0.2 | – | – | – | 16.963 | 15.522 | 14.197
[2], x1 = 0.299 | – | – | – | 18.26 | 16.765 | 15.4
[2], x1 = 0.4 | – | – | – | 19.772 | 18.22 | 16.76
[2], x1 = 0.5 | – | – | – | 21.409 | 19.78 | 18.225
[2], x1 = 0.6 | – | – | – | 23.176 | 21.499 | 19.794
[2], x1 = 0.699 | – | – | – | 25.066 | 23.351 | 21.52
[2], x1 = 0.801 | – | – | – | 27.119 | 25.335 | 23.403
[2], x1 = 0.9 | – | – | – | 29.28 | 27.371 | 25.287
[2], x1 = 1 | – | – | – | 31.587 | 29.482 | 27.203

OCCCCO [1,4-butanediol] + CCCCCO
Conditions | refractive index, 298.15 K | refractive index, 308.15 K | refractive index, 318.15 K | relative permittivity, 298.15 K | relative permittivity, 308.15 K | relative permittivity, 318.15 K
[1], x1 = 0.1 | 1.4118 | 1.4081 | 1.4051 | – | – | –
[1], x1 = 0.2 | 1.4147 | 1.4114 | 1.4089 | – | – | –
[1], x1 = 0.3 | 1.4185 | 1.4149 | 1.4119 | – | – | –
[1], x1 = 0.403 | 1.4226 | 1.4193 | 1.4166 | – | – | –
[1], x1 = 0.501 | 1.4256 | 1.4234 | 1.4201 | – | – | –
[1], x1 = 0.601 | 1.4302 | 1.4267 | 1.4242 | – | – | –
[1], x1 = 0.701 | 1.4334 | 1.431 | 1.428 | – | – | –
[1], x1 = 0.8 | 1.4375 | 1.4345 | 1.4324 | – | – | –
[1], x1 = 0.9 | 1.441 | 1.4382 | 1.4358 | – | – | –
[1], x1 = 1 | 1.4445 | 1.4417 | 1.4393 | – | – | –
[2], x1 = 0.1 | – | – | – | 16.037 | 14.699 | 13.391
[2], x1 = 0.2 | – | – | – | 17.171 | 15.827 | 14.452
[2], x1 = 0.3 | – | – | – | 18.467 | 17.054 | 15.646
[2], x1 = 0.403 | – | – | – | 19.924 | 18.471 | 17.026
[2], x1 = 0.501 | – | – | – | 21.49 | 19.97 | 18.416
[2], x1 = 0.601 | – | – | – | 23.245 | 21.632 | 19.971
[2], x1 = 0.701 | – | – | – | 25.108 | 23.459 | 21.616
[2], x1 = 0.8 | – | – | – | 27.105 | 25.339 | 23.393
[2], x1 = 0.9 | – | – | – | 29.265 | 27.356 | 25.251
[2], x1 = 1 | – | – | – | 31.587 | 29.482 | 27.203

CC(C)CCO [3-methylbutan-1-ol]
Conditions | refractive index, 298.15 K | refractive index, 308.15 K | refractive index, 318.15 K | relative permittivity, 298.15 K | relative permittivity, 308.15 K | relative permittivity, 318.15 K
[3] | 1.4048 | 1.4011 | 1.3973 | – | – | –
[5] | – | – | – | 14.93 | 13.402 | 12.051

Conditions | mass density [kg/m3]
[4] | 807.16

CC(C)CCO [3-methylbutan-1-ol] + OCCCCO
x2 = 0
Conditions | refractive index, 298.15 K | refractive index, 308.15 K | refractive index, 318.15 K | relative permittivity, 298.15 K | relative permittivity, 308.15 K | relative permittivity, 318.15 K
[1] | 1.4048 | 1.4011 | 1.3973 | – | – | –
[2] | – | – | – | 14.93 | 13.402 | 12.051

C1COCCO1 [1,4-dioxane]
Conditions | refractive index, 298.15 K | refractive index, 308.15 K | refractive index, 318.15 K | relative permittivity, 298.15 K | relative permittivity, 308.15 K | relative permittivity, 318.15 K
[3] | 1.4202 | 1.4144 | 1.4086 | – | – | –
[5] | – | – | – | 2.229 | 2.209 | 2.187

Conditions | mass density [kg/m3]
[4] | 1027.86

CCCCCO [pentan-1-ol]
Conditions | refractive index, 298.15 K | refractive index, 308.15 K | refractive index, 318.15 K | relative permittivity, 298.15 K | relative permittivity, 308.15 K | relative permittivity, 318.15 K
[3] | 1.4082 | 1.4041 | 1.4001 | – | – | –
[5] | – | – | – | 15.11 | 13.72 | 12.391

Conditions | mass density [kg/m3]
[4] | 811.1

CCCCCO [pentan-1-ol] + C1COCCO1
x1 = 1
Conditions | refractive index, 298.15 K | refractive index, 308.15 K | refractive index, 318.15 K | relative permittivity, 298.15 K | relative permittivity, 308.15 K | relative permittivity, 318.15 K
[1] | 1.4082 | 1.4041 | 1.4001 | – | – | –
[2] | – | – | – | 15.11 | 13.72 | 12.391

OCCCCO [1,4-butanediol]
Conditions | refractive index, 298.15 K | refractive index, 308.15 K | refractive index, 318.15 K | relative permittivity, 298.15 K | relative permittivity, 308.15 K | relative permittivity, 318.15 K
[3] | 1.4445 | 1.4417 | 1.4393 | – | – | –
[5] | – | – | – | 31.587 | 29.482 | 27.203

Conditions | mass density [kg/m3]
[4] | 1013.4

C1COCCO1 [1,4-dioxane] + CCCCCO
Conditions | refractive index, 298.15 K | refractive index, 308.15 K | refractive index, 318.15 K | relative permittivity, 298.15 K | relative permittivity, 308.15 K | relative permittivity, 318.15 K
[1], x2 = 0 | 1.4202 | 1.4144 | 1.4086 | – | – | –
[1], x2 = 0.1 | 1.4181 | 1.4121 | 1.407 | – | – | –
[1], x2 = 0.2 | 1.4161 | 1.4103 | 1.4055 | – | – | –
[1], x2 = 0.3 | 1.4144 | 1.4088 | 1.4042 | – | – | –
[1], x2 = 0.4 | 1.4128 | 1.4074 | 1.403 | – | – | –
[1], x2 = 0.501 | 1.4114 | 1.4063 | 1.4021 | – | – | –
[1], x2 = 0.599 | 1.4104 | 1.4055 | 1.4014 | – | – | –
[1], x2 = 0.699 | 1.4096 | 1.4048 | 1.4008 | – | – | –
[1], x2 = 0.801 | 1.409 | 1.4044 | 1.4004 | – | – | –
[1], x2 = 0.9 | 1.4086 | 1.4042 | 1.4002 | – | – | –
[2], x2 = 0 | – | – | – | 2.229 | 2.209 | 2.187
[2], x2 = 0.1 | – | – | – | 2.657 | 2.587 | 2.527
[2], x2 = 0.2 | – | – | – | 3.255 | 3.124 | 3.024
[2], x2 = 0.3 | – | – | – | 4.016 | 3.77 | 3.63
[2], x2 = 0.4 | – | – | – | 4.941 | 4.63 | 4.402
[2], x2 = 0.501 | – | – | – | 6.082 | 5.652 | 5.34
[2], x2 = 0.599 | – | – | – | 7.387 | 6.781 | 6.332
[2], x2 = 0.699 | – | – | – | 8.915 | 8.18 | 7.529
[2], x2 = 0.801 | – | – | – | 10.714 | 9.793 | 8.951
[2], x2 = 0.9 | – | – | – | 12.796 | 11.622 | 10.578

CCCCCO [pentan-1-ol] + OCCCCO
x2 = 0
Conditions | refractive index, 298.15 K | refractive index, 308.15 K | refractive index, 318.15 K | relative permittivity, 298.15 K | relative permittivity, 308.15 K | relative permittivity, 318.15 K
[1] | 1.4082 | 1.4041 | 1.4001 | – | – | –
[2] | – | – | – | 15.11 | 13.72 | 12.391

C1COCCO1 [1,4-dioxane] + CC(C)CCO
x2 = 0
Conditions | refractive index, 298.15 K | refractive index, 308.15 K | refractive index, 318.15 K | relative permittivity, 298.15 K | relative permittivity, 308.15 K | relative permittivity, 318.15 K
[1] | 1.4202 | 1.4144 | 1.4086 | – | – | –
[2] | – | – | – | 2.229 | 2.209 | 2.187

CC(C)CCO [3-methylbutan-1-ol] + C1COCCO1
Conditions | refractive index, 298.15 K | refractive index, 308.15 K | refractive index, 318.15 K | relative permittivity, 298.15 K | relative permittivity, 308.15 K | relative permittivity, 318.15 K
[1], x1 = 0.1 | 1.4177 | 1.4125 | 1.4069 | – | – | –
[1], x1 = 0.203 | 1.4151 | 1.4105 | 1.4054 | – | – | –
[1], x1 = 0.301 | 1.4133 | 1.4088 | 1.4039 | – | – | –
[1], x1 = 0.4 | 1.4114 | 1.4072 | 1.4026 | – | – | –
[1], x1 = 0.5 | 1.4098 | 1.4057 | 1.4012 | – | – | –
[1], x1 = 0.601 | 1.4084 | 1.4045 | 1.4001 | – | – | –
[1], x1 = 0.699 | 1.4072 | 1.4034 | 1.3992 | – | – | –
[1], x1 = 0.8 | 1.4063 | 1.4023 | 1.3984 | – | – | –
[1], x1 = 0.899 | 1.4054 | 1.4013 | 1.3978 | – | – | –
[1], x1 = 1 | 1.4048 | 1.4011 | 1.3973 | – | – | –
[2], x1 = 0.1 | – | – | – | 2.694 | 2.634 | 2.57
[2], x1 = 0.203 | – | – | – | 3.292 | 3.168 | 3.055
[2], x1 = 0.301 | – | – | – | 4.014 | 3.804 | 3.632
[2], x1 = 0.4 | – | – | – | 4.91 | 4.629 | 4.376
[2], x1 = 0.5 | – | – | – | 6.024 | 5.611 | 5.239
[2], x1 = 0.601 | – | – | – | 7.327 | 6.743 | 6.232
[2], x1 = 0.699 | – | – | – | 8.82 | 8.037 | 7.343
[2], x1 = 0.8 | – | – | – | 10.64 | 9.655 | 8.702
[2], x1 = 0.899 | – | – | – | 12.649 | 11.434 | 10.315
[2], x1 = 1 | – | – | – | 14.93 | 13.402 | 12.051
